# Reference: the NIST ThermoML archive (doi:10.1021/je800110r)
# Numbers after ± are expanded uncertainties.
# Conditions: Liquid, Vibrating tube method
structure (smiles),measurement,setting,value
CCCCCCCCCC [decane],mass density,"303.15 K, 32305 kPa",745.4 ± 2.1 kg/m3
same,mass density,"303.15 K, 32325 kPa",745.3 ± 2.1 kg/m3
same,mass density,"303.15 K, 32357 kPa",745.5 ± 2.1 kg/m3
same,mass density,"303.15 K, 32384 kPa",745.5 ± 2.1 kg/m3
same,mass density,"303.15 K, 32413 kPa",745.5 ± 2.1 kg/m3
same,mass density,"303.15 K, 32436 kPa",745.5 ± 2.1 kg/m3
same,mass density,"303.15 K, 32459 kPa",745.5 ± 2.1 kg/m3
same,mass density,"303.15 K, 32482 kPa",745.5 ± 2.1 kg/m3
same,mass density,"303.15 K, 32502 kPa",745.6 ± 2.1 kg/m3
same,mass density,"303.15 K, 32522 kPa",745.4 ± 2.1 kg/m3
same,mass density,"303.15 K, 32543 kPa",745.6 ± 2.1 kg/m3
same,mass density,"303.15 K, 32563 kPa",745.6 ± 2.1 kg/m3
same,mass density,"303.15 K, 32588 kPa",745.6 ± 2.1 kg/m3
same,mass density,"303.15 K, 32611 kPa",745.7 ± 2.1 kg/m3
same,mass density,"303.15 K, 32637 kPa",745.6 ± 2.1 kg/m3
same,mass density,"303.15 K, 32667 kPa",745.7 ± 2.1 kg/m3
same,mass density,"303.15 K, 32691 kPa",745.7 ± 2.1 kg/m3
same,mass density,"303.15 K, 32718 kPa",745.7 ± 2.1 kg/m3
same,mass density,"303.15 K, 32741 kPa",745.7 ± 2.1 kg/m3
same,mass density,"303.15 K, 32758 kPa",745.8 ± 2.1 kg/m3
same,mass density,"303.15 K, 32788 kPa",745.8 ± 2.1 kg/m3
same,mass density,"303.15 K, 32812 kPa",745.8 ± 2.1 kg/m3
same,mass density,"303.15 K, 32840 kPa",745.9 ± 2.1 kg/m3
same,mass density,"303.15 K, 32864 kPa",745.9 ± 2.1 kg/m3
same,mass density,"303.15 K, 32892 kPa",745.8 ± 2.1 kg/m3
same,mass density,"303.15 K, 32923 kPa",745.8 ± 2.1 kg/m3
same,mass density,"303.15 K, 32943 kPa",745.9 ± 2.1 kg/m3
same,mass density,"303.15 K, 32971 kPa",745.9 ± 2.1 kg/m3
same,mass density,"303.15 K, 32989 kPa",745.9 ± 2.1 kg/m3
same,mass density,"303.15 K, 33010 kPa",745.9 ± 2.1 kg/m3
same,mass density,"303.15 K, 33031 kPa",746 ± 2.1 kg/m3
same,mass density,"303.15 K, 33062 kPa",746 ± 2.1 kg/m3
same,mass density,"303.15 K, 33093 kPa",746 ± 2.1 kg/m3
same,mass density,"303.15 K, 33114 kPa",746 ± 2.1 kg/m3
same,mass density,"303.15 K, 33138 kPa",746.1 ± 2.1 kg/m3
same,mass density,"303.15 K, 33163 kPa",746 ± 2.1 kg/m3
same,mass density,"303.15 K, 33184 kPa",746 ± 2.1 kg/m3
same,mass density,"303.15 K, 33212 kPa",746.1 ± 2.1 kg/m3
same,mass density,"303.15 K, 33230 kPa",746.1 ± 2.1 kg/m3
same,mass density,"303.15 K, 33258 kPa",746.1 ± 2.1 kg/m3
same,mass density,"303.15 K, 33286 kPa",746 ± 2.1 kg/m3
same,mass density,"303.15 K, 33314 kPa",746.1 ± 2.1 kg/m3
same,mass density,"303.15 K, 33339 kPa",746.1 ± 2.1 kg/m3
same,mass density,"303.15 K, 33364 kPa",746 ± 2.1 kg/m3
same,mass density,"303.15 K, 33389 kPa",746.1 ± 2.1 kg/m3
same,mass density,"303.15 K, 33424 kPa",746.1 ± 2.1 kg/m3
same,mass density,"303.15 K, 33458 kPa",746.1 ± 2.1 kg/m3
same,mass density,"303.15 K, 33487 kPa",746.2 ± 2.1 kg/m3
same,mass density,"303.15 K, 33512 kPa",746.2 ± 2.1 kg/m3
same,mass density,"303.15 K, 33545 kPa",746.2 ± 2.1 kg/m3
same,mass density,"303.15 K, 33566 kPa",746.3 ± 2.1 kg/m3
same,mass density,"303.15 K, 33588 kPa",746.3 ± 2.1 kg/m3
same,mass density,"303.15 K, 33621 kPa",746.3 ± 2.1 kg/m3
same,mass density,"303.15 K, 33642 kPa",746.3 ± 2.1 kg/m3
same,mass density,"303.15 K, 33676 kPa",746.4 ± 2.1 kg/m3
same,mass density,"303.15 K, 33697 kPa",746.3 ± 2.1 kg/m3
same,mass density,"303.15 K, 33719 kPa",746.4 ± 2.1 kg/m3
same,mass density,"303.15 K, 33741 kPa",746.4 ± 2.1 kg/m3
same,mass density,"303.15 K, 33764 kPa",746.3 ± 2.1 kg/m3
same,mass density,"303.15 K, 33790 kPa",746.4 ± 2.1 kg/m3
same,mass density,"303.15 K, 33816 kPa",746.4 ± 2.1 kg/m3
same,mass density,"303.15 K, 33848 kPa",746.4 ± 2.1 kg/m3
same,mass density,"303.15 K, 33871 kPa",746.4 ± 2.1 kg/m3
same,mass density,"303.15 K, 33904 kPa",746.4 ± 2.1 kg/m3
same,mass density,"303.15 K, 33923 kPa",746.4 ± 2.1 kg/m3
same,mass density,"303.15 K, 33961 kPa",746.4 ± 2.1 kg/m3
same,mass density,"303.15 K, 33984 kPa",746.6 ± 2.1 kg/m3
same,mass density,"303.15 K, 34018 kPa",746.6 ± 2.1 kg/m3
same,mass density,"303.15 K, 34044 kPa",746.5 ± 2.1 kg/m3
same,mass density,"303.15 K, 34068 kPa",746.5 ± 2.1 kg/m3
same,mass density,"303.15 K, 34100 kPa",746.6 ± 2.1 kg/m3
same,mass density,"303.15 K, 34124 kPa",746.5 ± 2.1 kg/m3
same,mass density,"303.15 K, 34151 kPa",746.6 ± 2.1 kg/m3
same,mass density,"303.15 K, 34180 kPa",746.5 ± 2.1 kg/m3
same,mass density,"303.15 K, 34218 kPa",746.6 ± 2.1 kg/m3
same,mass density,"303.15 K, 34247 kPa",746.6 ± 2.1 kg/m3
same,mass density,"303.15 K, 34265 kPa",746.8 ± 2.1 kg/m3
same,mass density,"303.15 K, 34284 kPa",746.8 ± 2.1 kg/m3
same,mass density,"303.15 K, 34306 kPa",746.8 ± 2.1 kg/m3
same,mass density,"303.15 K, 34332 kPa",746.7 ± 2.1 kg/m3
same,mass density,"303.15 K, 34354 kPa",746.7 ± 2.1 kg/m3
same,mass density,"303.15 K, 34372 kPa",746.8 ± 2.1 kg/m3
same,mass density,"303.15 K, 34395 kPa",746.7 ± 2.1 kg/m3
same,mass density,"303.15 K, 34422 kPa",746.8 ± 2.1 kg/m3
same,mass density,"303.15 K, 34443 kPa",746.9 ± 2.1 kg/m3
same,mass density,"303.15 K, 34449 kPa",746.8 ± 2.1 kg/m3
same,mass density,"303.16 K, 4203 kPa",725.7 ± 2 kg/m3
same,mass density,"303.16 K, 4220 kPa",725.6 ± 2 kg/m3
same,mass density,"303.16 K, 4238 kPa",725.7 ± 2 kg/m3
same,mass density,"303.16 K, 4251 kPa",725.8 ± 2 kg/m3
same,mass density,"303.16 K, 4264 kPa",725.7 ± 2 kg/m3
same,mass density,"303.16 K, 4275 kPa",725.6 ± 2 kg/m3
same,mass density,"303.16 K, 4290 kPa",725.8 ± 2 kg/m3
same,mass density,"303.16 K, 4305 kPa",725.8 ± 2 kg/m3
same,mass density,"303.16 K, 4325 kPa",725.8 ± 2 kg/m3
same,mass density,"303.16 K, 4341 kPa",725.8 ± 2 kg/m3
same,mass density,"303.16 K, 4354 kPa",725.8 ± 2 kg/m3
same,mass density,"303.16 K, 4367 kPa",725.9 ± 2 kg/m3
same,mass density,"303.16 K, 4380 kPa",725.8 ± 2 kg/m3
same,mass density,"303.16 K, 4395 kPa",725.9 ± 2 kg/m3
same,mass density,"303.16 K, 4407 kPa",725.9 ± 2 kg/m3
same,mass density,"303.16 K, 4422 kPa",725.8 ± 2 kg/m3
same,mass density,"303.16 K, 4433 kPa",725.9 ± 2 kg/m3
same,mass density,"303.16 K, 4451 kPa",725.9 ± 2 kg/m3
same,mass density,"303.16 K, 4466 kPa",725.8 ± 2 kg/m3
same,mass density,"303.16 K, 4480 kPa",725.9 ± 2 kg/m3
same,mass density,"303.16 K, 4496 kPa",726 ± 2 kg/m3
same,mass density,"303.16 K, 4508 kPa",726 ± 2 kg/m3
same,mass density,"303.16 K, 4521 kPa",725.9 ± 2 kg/m3
same,mass density,"303.16 K, 4534 kPa",725.9 ± 2 kg/m3
same,mass density,"303.16 K, 4547 kPa",726 ± 2 kg/m3
same,mass density,"303.16 K, 4563 kPa",726 ± 2 kg/m3
same,mass density,"303.16 K, 4577 kPa",726.1 ± 2 kg/m3
same,mass density,"303.16 K, 4593 kPa",726 ± 2 kg/m3
same,mass density,"303.16 K, 4606 kPa",726 ± 2 kg/m3
same,mass density,"303.16 K, 4625 kPa",726 ± 2 kg/m3
same,mass density,"303.16 K, 4643 kPa",726 ± 2 kg/m3
same,mass density,"303.16 K, 4656 kPa",726.1 ± 2 kg/m3
same,mass density,"303.16 K, 4675 kPa",726.1 ± 2 kg/m3
same,mass density,"303.16 K, 4693 kPa",726.1 ± 2 kg/m3
same,mass density,"303.16 K, 4708 kPa",726.1 ± 2 kg/m3
same,mass density,"303.16 K, 4723 kPa",726.1 ± 2 kg/m3
same,mass density,"303.16 K, 4736 kPa",726.2 ± 2 kg/m3
same,mass density,"303.16 K, 4754 kPa",726.1 ± 2 kg/m3
same,mass density,"303.16 K, 4774 kPa",726.2 ± 2 kg/m3
same,mass density,"303.16 K, 4788 kPa",726.2 ± 2 kg/m3
same,mass density,"303.16 K, 4802 kPa",726.1 ± 2 kg/m3
same,mass density,"303.16 K, 4819 kPa",726.2 ± 2 kg/m3
same,mass density,"303.16 K, 4835 kPa",726.2 ± 2 kg/m3
same,mass density,"303.16 K, 4846 kPa",726.2 ± 2 kg/m3
same,mass density,"303.16 K, 4858 kPa",726.3 ± 2 kg/m3
same,mass density,"303.16 K, 4870 kPa",726.2 ± 2 kg/m3
same,mass density,"303.16 K, 4881 kPa",726.1 ± 2 kg/m3
same,mass density,"303.16 K, 4893 kPa",726.1 ± 2 kg/m3
same,mass density,"303.16 K, 4904 kPa",726.2 ± 2 kg/m3
same,mass density,"303.16 K, 4918 kPa",726.3 ± 2 kg/m3
same,mass density,"303.16 K, 4931 kPa",726.3 ± 2 kg/m3
